Assay results published in the supplement of paper PMC10307832.

How the values were obtained:
Test in all cases: relative viability (nuclei count vs DMSO), 5 days (fraction); higher = more cells survive
[1] = tested on: A-427
How it was run: (§1)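 For relative viability, nuclei counts in treated wells were divided by those in vehicle wells. Lung cancer cell lines had been pin-tool dosed in 1536-well plates the day after seeding and cultured for 5 days, then fixed and stained in one step (final 0.05% Triton X-100, 1% formaldehyde, 1 ug/ml Hoechst) and imaged at 4×. Doses were one drug alone or a fixed anchor-drug dose plus five library-drug doses (not always all listed) in √10 steps, and values are duplicate-plate medians.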

[2] = tested on: ABC-1
How it was run: as §1

[3] = tested on: CAL-12T
How it was run: as §1

[4] = tested on: H3255
How it was run: as §1

[5] = tested on: LCLC-103H
How it was run: as §1

[6] = tested on: LK-2
How it was run: as §1

[7] = tested on: NCI-H1355
How it was run: as §1

[8] = tested on: NCI-H1563
How it was run: as §1

[9] = tested on: NCI-H1651
How it was run: as §1

[10] = tested on: NCI-H1666
How it was run: as §1

[11] = tested on: NCI-H1792
How it was run: as §1

[12] = tested on: NCI-H2085
How it was run: as §1

[13] = tested on: NCI-H2087
How it was run: as §1

[14] = tested on: NCI-H2228
How it was run: as §1

[15] = tested on: NCI-H23
How it was run: as §1

[16] = tested on: NCI-H322M
How it was run: as §1

[17] = tested on: NCI-H358
How it was run: as §1

[18] = tested on: NCI-H661
How it was run: as §1

[19] = tested on: NCI-H838
How it was run: as §1

[20] = tested on: PC-14
How it was run: as §1

[21] = tested on: UMC-11
How it was run: as §1

## COCC1(CO)C(=O)C2CCN1CC2 (configuration not stated) [PRIMA-1MET] + C[C@@H](Oc1cc(-c2cnn(C3CCNCC3)c2)cnc1N)c1c(Cl)ccc(F)c1Cl [Crizotinib] (partner 1 µM)
[1]; first compound 0.2 µM
  relative viability: 0.935
[1]; first compound 0.6325 µM
  relative viability: 0.721
[1]; first compound 2 µM
  relative viability: 0.769
[1]; first compound 6.325 µM
  relative viability: 0.959
[1]; first compound 20 µM
  relative viability: 0.822
[2]; first compound 0.2 µM
  relative viability: 1.39
[2]; first compound 0.6325 µM
  relative viability: 1.22
[2]; first compound 2 µM
  relative viability: 0.945
[2]; first compound 6.325 µM
  relative viability: 0.908
[2]; first compound 20 µM
  relative viability: 0.555
[3]; first compound 0.2 µM
  relative viability: 0.788
[3]; first compound 0.6325 µM
  relative viability: 0.834
[3]; first compound 2 µM
  relative viability: 0.687
[3]; first compound 6.325 µM
  relative viability: 0.661
[3]; first compound 20 µM
  relative viability: 0.283
[4]; first compound 0.2 µM
  relative viability: 0.898
[4]; first compound 0.6325 µM
  relative viability: 0.682
[4]; first compound 2 µM
  relative viability: 0.77
[4]; first compound 6.325 µM
  relative viability: 0.991
[4]; first compound 20 µM
  relative viability: 0.898
[5]; first compound 0.2 µM
  relative viability: 1.16
[5]; first compound 0.6325 µM
  relative viability: 1.05
[5]; first compound 2 µM
  relative viability: 0.894
[5]; first compound 6.325 µM
  relative viability: 1.11
[5]; first compound 20 µM
  relative viability: 1.06
[6]; first compound 0.2 µM
  relative viability: 0.221
[6]; first compound 0.6325 µM
  relative viability: 0.182
[6]; first compound 2 µM
  relative viability: 0.22
[6]; first compound 6.325 µM
  relative viability: 0.255
[6]; first compound 20 µM
  relative viability: 0.18
[7]; first compound 0.2 µM
  relative viability: 1.2
[7]; first compound 0.6325 µM
  relative viability: 1.02
[7]; first compound 2 µM
  relative viability: 0.897
[7]; first compound 6.325 µM
  relative viability: 1.05
[7]; first compound 20 µM
  relative viability: 1.03
[8]; first compound 0.2 µM
  relative viability: 0.887
[8]; first compound 0.6325 µM
  relative viability: 0.806
[8]; first compound 2 µM
  relative viability: 0.868
[8]; first compound 6.325 µM
  relative viability: 0.843
[8]; first compound 20 µM
  relative viability: 0.262
[9]; first compound 0.2 µM
  relative viability: 0.991
[9]; first compound 0.6325 µM
  relative viability: 0.788
[9]; first compound 2 µM
  relative viability: 0.741
[9]; first compound 6.325 µM
  relative viability: 0.955
[9]; first compound 20 µM
  relative viability: 0.888
[10]; first compound 0.2 µM
  relative viability: 1.15
[10]; first compound 0.6325 µM
  relative viability: 0.9
[10]; first compound 2 µM
  relative viability: 0.987
[10]; first compound 6.325 µM
  relative viability: 1.25
[10]; first compound 20 µM
  relative viability: 0.443
[11]; first compound 0.2 µM
  relative viability: 1.08
[11]; first compound 0.6325 µM
  relative viability: 0.884
[11]; first compound 2 µM
  relative viability: 1.1
[11]; first compound 6.325 µM
  relative viability: 0.991
[11]; first compound 20 µM
  relative viability: 0.971
[12]; first compound 0.2 µM
  relative viability: 0.886
[12]; first compound 0.6325 µM
  relative viability: 0.747
[12]; first compound 2 µM
  relative viability: 0.692
[12]; first compound 6.325 µM
  relative viability: 0.518
[12]; first compound 20 µM
  relative viability: 0.155
[13]; first compound 0.2 µM
  relative viability: 0.949
[13]; first compound 0.6325 µM
  relative viability: 0.751
[13]; first compound 2 µM
  relative viability: 0.474
[13]; first compound 6.325 µM
  relative viability: 0.794
[13]; first compound 20 µM
  relative viability: 0.805
[14]; first compound 0.2 µM
  relative viability: 0.414
[14]; first compound 0.6325 µM
  relative viability: 0.455
[14]; first compound 2 µM
  relative viability: 0.444
[14]; first compound 6.325 µM
  relative viability: 0.547
[14]; first compound 20 µM
  relative viability: 0.0537
[15]; first compound 0.2 µM
  relative viability: 0.599
[15]; first compound 0.6325 µM
  relative viability: 0.471
[15]; first compound 2 µM
  relative viability: 0.48
[15]; first compound 6.325 µM
  relative viability: 0.406
[15]; first compound 20 µM
  relative viability: 0.104
[16]; first compound 0.2 µM
  relative viability: 0.75
[16]; first compound 6.325 µM
  relative viability: 0.991
[16]; first compound 20 µM
  relative viability: 0.82
[17]; first compound 0.2 µM
  relative viability: 0.688
[17]; first compound 0.6325 µM
  relative viability: 0.59
[17]; first compound 6.325 µM
  relative viability: 0.526
[17]; first compound 20 µM
  relative viability: 0.152
[18]; first compound 0.2 µM
  relative viability: 1.15
[18]; first compound 6.325 µM
  relative viability: 1.11
[18]; first compound 20 µM
  relative viability: 0.999
[19]; first compound 0.2 µM
  relative viability: 1.06
[19]; first compound 0.6325 µM
  relative viability: 0.755
[19]; first compound 2 µM
  relative viability: 0.793
[19]; first compound 6.325 µM
  relative viability: 0.906
[19]; first compound 20 µM
  relative viability: 0.318
[20]; first compound 0.2 µM
  relative viability: 1.06
[20]; first compound 0.6325 µM
  relative viability: 0.852
[20]; first compound 2 µM
  relative viability: 0.853
[20]; first compound 6.325 µM
  relative viability: 0.975
[20]; first compound 20 µM
  relative viability: 1
[21]; first compound 0.2 µM
  relative viability: 0.536
[21]; first compound 0.6325 µM
  relative viability: 0.643
[21]; first compound 2 µM
  relative viability: 0.607
[21]; first compound 6.325 µM
  relative viability: 0.726
[21]; first compound 20 µM
  relative viability: 0.586

## COCC1(CO)C(=O)C2CCN1CC2 (configuration not stated) [PRIMA-1MET] + CC(C)C[C@H](NC(=O)[C@H](Cc1ccccc1)NC(=O)c1cnccn1)B(O)O [Bortezomib] (partner 0.002 µM)
[1]; first compound 0.2 µM
  relative viability: 1.09
[1]; first compound 0.6325 µM
  relative viability: 0.881
[1]; first compound 2 µM
  relative viability: 0.901
[1]; first compound 6.325 µM
  relative viability: 0.839
[1]; first compound 20 µM
  relative viability: 0.962
[2]; first compound 0.2 µM
  relative viability: 0.297
[2]; first compound 0.6325 µM
  relative viability: 0.278
[2]; first compound 2 µM
  relative viability: 0.256
[2]; first compound 6.325 µM
  relative viability: 0.287
[2]; first compound 20 µM
  relative viability: 0.276
[3]; first compound 0.2 µM
  relative viability: 0.862
[3]; first compound 0.6325 µM
  relative viability: 0.947
[3]; first compound 2 µM
  relative viability: 1.15
[3]; first compound 6.325 µM
  relative viability: 0.946
[3]; first compound 20 µM
  relative viability: 0.245
[4]; first compound 0.2 µM
  relative viability: 0.814
[4]; first compound 0.6325 µM
  relative viability: 0.461
[4]; first compound 2 µM
  relative viability: 0.771
[4]; first compound 6.325 µM
  relative viability: 0.815
[4]; first compound 20 µM
  relative viability: 0.69
[5]; first compound 0.2 µM
  relative viability: 1.35
[5]; first compound 0.6325 µM
  relative viability: 1.03
[5]; first compound 2 µM
  relative viability: 1.04
[5]; first compound 6.325 µM
  relative viability: 0.934
[5]; first compound 20 µM
  relative viability: 1
[7]; first compound 0.2 µM
  relative viability: 1.26
[7]; first compound 0.6325 µM
  relative viability: 1.12
[7]; first compound 2 µM
  relative viability: 1.21
[7]; first compound 6.325 µM
  relative viability: 1.31
[7]; first compound 20 µM
  relative viability: 1.18
[8]; first compound 0.2 µM
  relative viability: 0.945
[8]; first compound 0.6325 µM
  relative viability: 0.822
[8]; first compound 2 µM
  relative viability: 0.635
[8]; first compound 6.325 µM
  relative viability: 1.15
[8]; first compound 20 µM
  relative viability: 0.386
[9]; first compound 0.2 µM
  relative viability: 0.929
[9]; first compound 0.6325 µM
  relative viability: 0.847
[9]; first compound 2 µM
  relative viability: 0.874
[9]; first compound 6.325 µM
  relative viability: 0.975
[9]; first compound 20 µM
  relative viability: 0.844
[10]; first compound 0.2 µM
  relative viability: 0.836
[10]; first compound 0.6325 µM
  relative viability: 0.777
[10]; first compound 2 µM
  relative viability: 0.816
[10]; first compound 6.325 µM
  relative viability: 0.983
[10]; first compound 20 µM
  relative viability: 0.305
[11]; first compound 0.2 µM
  relative viability: 0.959
[11]; first compound 0.6325 µM
  relative viability: 0.851
[11]; first compound 2 µM
  relative viability: 0.937
[11]; first compound 6.325 µM
  relative viability: 1
[11]; first compound 20 µM
  relative viability: 0.939
[12]; first compound 0.2 µM
  relative viability: 1.08
[12]; first compound 0.6325 µM
  relative viability: 0.978
[12]; first compound 2 µM
  relative viability: 0.856
[12]; first compound 6.325 µM
  relative viability: 0.609
[12]; first compound 20 µM
  relative viability: 0.392
[13]; first compound 0.2 µM
  relative viability: 1
[13]; first compound 0.6325 µM
  relative viability: 0.673
[13]; first compound 2 µM
  relative viability: 0.795
[13]; first compound 6.325 µM
  relative viability: 0.888
[13]; first compound 20 µM
  relative viability: 0.647
[14]; first compound 0.2 µM
  relative viability: 1.1
[14]; first compound 0.6325 µM
  relative viability: 0.957
[14]; first compound 2 µM
  relative viability: 1.09
[14]; first compound 6.325 µM
  relative viability: 1.04
[14]; first compound 20 µM
  relative viability: 0.0398
[15]; first compound 0.2 µM
  relative viability: 0.966
[15]; first compound 0.6325 µM
  relative viability: 0.724
[15]; first compound 2 µM
  relative viability: 0.944
[15]; first compound 6.325 µM
  relative viability: 1.05
[15]; first compound 20 µM
  relative viability: 0.116
[16]; first compound 0.2 µM
  relative viability: 1.3
[16]; first compound 6.325 µM
  relative viability: 1.29
[16]; first compound 20 µM
  relative viability: 1.06
[18]; first compound 0.2 µM
  relative viability: 0.846
[18]; first compound 0.6325 µM
  relative viability: 0.69
[18]; first compound 6.325 µM
  relative viability: 0.817
[18]; first compound 20 µM
  relative viability: 0.623
[19]; first compound 0.2 µM
  relative viability: 0.9
[19]; first compound 0.6325 µM
  relative viability: 0.652
[19]; first compound 2 µM
  relative viability: 0.745
[19]; first compound 6.325 µM
  relative viability: 0.978
[19]; first compound 20 µM
  relative viability: 0.263
[20]; first compound 0.2 µM
  relative viability: 0.98
[20]; first compound 0.6325 µM
  relative viability: 0.722
[20]; first compound 2 µM
  relative viability: 0.856
[20]; first compound 6.325 µM
  relative viability: 1.08
[20]; first compound 20 µM
  relative viability: 0.884
[21]; first compound 0.2 µM
  relative viability: 0.778
[21]; first compound 0.6325 µM
  relative viability: 0.407
[21]; first compound 2 µM
  relative viability: 0.666
[21]; first compound 6.325 µM
  relative viability: 0.771
[21]; first compound 20 µM
  relative viability: 0.777
